# In patent US5698541A, “2,4-diphosphonoglutaric acid derivatives, processes for their production and pharmaceutical agents containing these compounds” (Boehringer Mannheim GmbH, priority 1994, dated 1997):
# System: non-stimulated bone resorption
# Experiment: Inhibition of non-stimulated bone resorption by determining the excretion of [3H]-tetracycline in urine
# Assay type: in vivo
# Details: rats, subcutaneous, 2 × 200 mg/kg (8 a.m. and 5 p.m. on sixth day of urine collection); reduced [3H]-tetracycline excretion in urine on eighth day
# Description: Inhibition of non-stimulated bone resorption by determining the excretion of [^3 H]-tetracycline in urine:
# From birth onwards rats received a twice-weekly injection of increasing amounts of a solution of 3.7×10^5 Bq/ml (10 μCi/ml) [7-^3 H]-tetracycline ([^3 H]TC); New England Nuclear, Boston, Mass.) with a specific activity of 679 mCi/mmol. The volume per injection is increased from 50 μl/week to 250 μl in the fifth week and kept at this level for a further week. The total amount of administered [^3 H]TC was 20 μCi per rat. 51-day-old rats are transferred to individual metabolic cages and received a group feeding with feed which contained 0.5% Ca and 0.35% P. This feed was produced by addition of appropriate amounts of calcium and phosphate (SODI 2134, "Klingenthalmuhle"). The animals received distilled water ad libitum during the entire duration of the experiment. Collection of 24 hour urine was begun after 61 days. The urine was collected daily at 11 o'clock; the animals also received food at this time. On the sixth day after the start of the urine collection, the animals received subcutaneous injections of the substance (at 8 a.m. and 5 p.m.). […] The ^3 H-TC in urine is determined by liquid scintillation by adding 10 ml of the scintillator Pico-Fluor 30 (Packard International, Zurich, Switzerland) to 1 ml of the urine. […]
smiles,measurement,value
NCCCCC(CC(C(=O)O)P(=O)(O)O)(C(=O)O)P(=O)(O)O (centres unmarked) [Example 5],% rel. inhibition/dosage,45%
"O=C(O)C(CC(CCCN1CCCC1)(C(=O)O)P(=O)(O)O)P(=O)(O)O (centres unmarked) [Example 4, 2,4-diphosphono-2-pyrrolidinopropylglutaric acid]",% rel. inhibition/dosage,37%
